Experiment: Human HepG2 cell viability assay in 384 well format
Assay type: toxicity, cell-based
Parameters: dose 125 nL, time 70.5 hour; concentration not given beside the values
Details: HepG2 cells, read-out: Inhibition

Structure (SMILES)	cytotoxicity at 70.5 h
Cc1noc(CNc2c(N3CCCC3)cccc2N2CCCC2)n1	7.99%
Cc1nnc(SCCC(=O)N(C)Cc2ccc(Cl)s2)[nH]1	-14.2%
CN(Cc1cc(F)ccc1C#N)CC(C)(CO)CO	-4.66%
COC1CCC(N(C)c2ccnc(N(C)C)n2)CC1 (configuration not stated)	-7.23%
N#Cc1c(F)cccc1N1CCN(C(=O)Nc2nncs2)CC1	11.5%
O=C(Nc1ccnn1Cc1ccccc1Cl)C1CCS(=O)(=O)C1 (configuration not stated)	-17%
COc1ccc(CNCCn2c(C)nc3ccccc32)cc1O	-8.82%
Cc1nc2ccccc2n1CCNCc1cccc(C#N)c1	-14.8%
O=C(CN1CCc2sccc2C1)Nc1nccs1	-18.3%
N#Cc1c(F)cccc1N1CCC(C(=O)Nc2nccs2)CC1	-17.6%
CN(CC(=O)NCCCOc1ccc(F)cc1)c1ccc(C#N)cn1	-19%
Cc1ccc(OCC(C)NC(=O)CN(C)c2ccc(C#N)cn2)cc1 (configuration not stated)	-3.51%
CC(C)(C)NC(=O)NC(=O)CNc1c(F)cccc1N1CCCC1	-5.38%
O=C1CCC(C(=O)Nc2cnn(-c3ccccc3Cl)c2)N1 (configuration not stated)	-9.74%
CCNC(=O)N1CCc2ccc(NC(=O)NCCOCC)cc21	1.97%
N#CC1(NC(=O)c2ccc(-c3nc(C4CC4)n[nH]3)cc2)CC1	-12.9%
CCNC(=O)N1CCc2ccc(NC(=O)NCc3ccsc3)cc21	9.35%
CNC(=O)c1cccnc1N1CCC(OCc2ccccc2)CC1	-19.8%
CNC(=O)c1ccc2c(c1O)OC(C)(C)C2	-4.08%
CC1(CNC(=O)NCc2ccsc2)CCCS1 (configuration not stated)	-8.93%
CNC(=O)c1cccnc1N1CCC(Oc2ccc(F)cc2)CC1	-14.2%
CC(C)(C)C(O)CN1CCN(CC(=O)NC(C2CC2)C2CC2)CC1 (configuration not stated)	2.37%

Structure (SMILES)	cytotoxicity at 70.5 h
c1csc(CNc2ccccc2Cn2cncn2)c1	7.58%
CN(C(=O)c1cccc(OCC(F)F)n1)c1ccc2c(c1)CCO2	21.4%
N#CC1C(=O)Nc2c(cnn2C2CCCC2)C12CCCC2 (configuration not stated)	-2.82%
Cc1c(C(=O)NCCC(=O)N2CCCC2)oc2c(F)cccc12	-6.53%
CC(Cc1ccco1)NC(=O)CSc1nnc[nH]1 (configuration not stated)	-9.49%
CCN(Cc1cccc(F)c1)c1ccc2nnnn2n1	-1.32%
Cc1ccc(C)c2c(C)c(C(=O)NCCC(=O)N3CCOCC3)oc12	-10.6%
CCCN(CCc1cccc(F)c1)c1ccc2nnnn2n1	-22.2%
Cc1ccc(NC(=O)CCC2CC2)cc1N1CCOC1=O	-10.8%
CCc1nncn1CCNC(=O)Nc1ccc2c(c1)CCCO2	1.85%
CCc1nncn1CCNC(=O)Nc1ccc(OC)c(C)c1	-7.19%
CCCn1ccc2cc(NC(=O)NCCn3cnnc3CC)ccc21	-9.53%
CCN(C)CC1CCN(C(=O)Nc2ccc(-c3csnn3)cc2)C1 (configuration not stated)	-5.78%
CCc1nc2n(n1)CCCC2NC(=O)Nc1cc(OC)ccc1C (configuration not stated)	3.05%
O=S(=O)(CC1CCCCC1)NCc1ccnc(O)c1	-7.43%
O=C1NCCO[C@H]2CN(C(=O)Cc3csc4ccccc34)CC[C@@H]12	-8.16%
O=C(NCC1Cn2nnc(-c3ccsc3)c2CO1)N1CCCC1 (configuration not stated)	-7.85%
O=C(Nc1cccnc1)[C@H]1CN(Cc2cccs2)C[C@H]2OCC[C@@H]12	-10.8%
O=C1NCCO[C@H]2CN(C(=O)c3cccs3)CC[C@@H]12	20.1%
O=C1NCCO[C@H]2CN(C(=O)Cc3ccco3)CC[C@@H]12	-5.72%
Cc1csc(CN2C[C@@H]3CN(CC4CCOCC4)CCO[C@@H]3C2)n1	-6.62%
Cc1csc(CN2C[C@@H]3CN(C)CCO[C@@H]3C2)n1	-3.79%

Structure (SMILES)	cytotoxicity at 70.5 h
Cc1cnc(C(=O)N2C[C@H](N3CCOCC3)[C@@H]3OCCC[C@@H]32)cn1	-13.1%
Cc1ccc(C(=O)N2C[C@@H](N3CCN(C)CC3)[C@H]3OCCC[C@H]32)cn1	-11.9%
Cc1nnc([C@@]23CCO[C@@H]2CCN(Cc2cccc4ccccc24)C3)o1	-6.43%
CCS(=O)(=O)N1CCC2(CCN(C(=O)c3cccs3)CC2)CC1	-4.52%
Cc1nnc([C@@]23CCO[C@@H]2CCN(Cc2scnc2C)C3)o1	-10.2%
Cc1ncccc1NC(=O)c1nc2c(n1C)CCN(C(=O)C1CC1)C2	-8.28%
COCc1cnc2n1CCN(C(=O)c1cc3cc(Cl)ccc3o1)C2C (configuration not stated)	18.3%
CS(=O)(=O)N1C[C@@H]2COC[C@]2(C(=O)NCCc2cccs2)C1	-7.21%
CCOC1COC2(CCN(S(=O)(=O)c3ccc(F)cc3)CC2)C1 (configuration not stated)	-12.9%
Cc1cnc(N2CCC3(C2)CN(S(=O)(=O)C2CC2)C3)nc1	-8.82%
CN(Cc1cccnc1)C[C@H]1OC[C@@H]2CCN(c3ncccn3)C[C@@H]21	-0.858%
Cc1noc(C)c1CN1CCn2c(COC(C)C)nnc2C1	-10.8%
COC[C@@]12CCO[C@@H]1CCN(C(=O)C1CCSCC1)C2	-5.18%
O=C([C@@H]1COC[C@H]2CN(C3CCCCC3)C[C@H]21)N1CCOCC1	-9.47%
O=C([C@H]1COC[C@H]2CN(C3CCCC3)C[C@H]21)N1CCOCC1	-9.13%
COC[C@@]12CCO[C@@H]1CCN(C(=O)C1CC(F)(F)C1)C2	-11.5%
COC[C@@]12CCO[C@@H]1CCN(C(=O)C1CCOCC1)C2	-11.6%
CCN(C(=O)c1ccc2nnc(C3CCN(C(C)=O)C3)n2c1)C(C)C (configuration not stated)	-12.3%
CCN(C(=O)c1ccc2nnc(C3CCN(S(C)(=O)=O)C3)n2c1)C(C)C (configuration not stated)	-9.62%
CC(=O)N1CCC(c2nnc3ccc(C(=O)NCC(C)C)cn23)C1 (configuration not stated)	-12.8%
O=C(NCC1CCCCC1)N1C[C@H]2C[C@H](C(=O)N3CCOCC3)[C@@H](C1)O2	24.6%
Cn1ccnc1C(=O)NC[C@@H]1OC[C@H]2CN(S(C)(=O)=O)CC[C@H]21	-5.19%

Structure (SMILES)	cytotoxicity at 70.5 h
CC(C)NC(=O)[C@H]1C[C@@H]2CN(C(=O)NC(C)C)C[C@H]1O2	-10.3%
O=C(Cc1ccco1)N1C[C@H]2CCC[C@@]2(COCc2cccnc2)C1	-10.4%
O=C(Cc1ccco1)N1C[C@H]2CCC[C@@]2(COc2cccnc2)C1	-5.14%
O=C(Cc1ccco1)N1C[C@H]2CCC[C@@]2(COCC2CC2)C1	-11.1%
Cn1cnc2c(-c3ccccc3)nc(C3CCNCC3)cc21	13.6%
CC(C)N1C(=O)C2(CCN(C)CC2)c2cc(F)ccc21	-7.44%
CC(C)n1cnc2c(-c3cccnc3)nc(C3CCNCC3)cc21	12%
O=C(NC1CC(F)(F)C1)[C@]12COC[C@H]1CN(Cc1ccccc1)C2	-9.36%
Cc1ncsc1CN1C[C@@H]2COC[C@]2(C(=O)NC2CC(F)(F)C2)C1	-4.72%
O=C(O)c1c(-c2cncnc2)ncc2c1CCN(CC1CCOC1)C2 (configuration not stated)	-4.73%
Cn1ccnc1C(=O)N1CCC2(CCN2Cc2ccc(F)cc2)C1 (configuration not stated)	-3.38%
CNC(=O)c1cc2c(nc1N(C)C)CCN(c1ncccn1)CC2	-12%
Cc1cc(C(=O)N2CCC3(CC2)C(=O)N(C)CCN3CC(C)C)c(C)o1	-10.1%
CCOC[C@]12COC[C@H]1CN(Cc1ccc3c(c1)OCO3)C2	-6.35%
CN1CCN(S(=O)(=O)c2cccc(F)c2)Cc2cccnc21	-2.06%
COCC(=O)NC[C@]12COC[C@H]1CN(Cc1ccc3c(c1)OCO3)C2	-0.957%
CS(=O)(=O)NC[C@]12COC[C@H]1CN(Cc1ccc3c(c1)OCO3)C2	5.12%
COC[C@]12COC[C@H]1CN(Cc1ccc3c(c1)OCO3)C2	-6.87%
CCN1CC2(CCOCC2)c2cc(NS(=O)(=O)CC)ccc21	-2.27%
CCOC1CC2(CCN(C(=O)Cc3ccccn3)CC2)C1	18.1%
Cc1nc(CO[C@H]2CN(C(=O)c3cnoc3C)[C@@H]3COC[C@H]23)cs1	-3.09%
c1ccc(NC[C@@H]2CCC[C@@H]3CN(Cc4cc[nH]n4)C[C@@H]32)nc1	-12.4%

Structure (SMILES)	cytotoxicity at 70.5 h
CN(C)C1COC2(CCN(S(=O)(=O)c3ccc(F)cc3)CC2)C1 (configuration not stated)	-13.4%
c1ccc(NC[C@@H]2CCC[C@@H]3CN(Cc4nccs4)C[C@@H]32)nc1	-0.385%
Cc1nnn2c1COCC(CNCc1nccs1)C2 (configuration not stated)	-10.3%
O=C(NCCc1cccs1)[C@]12COC[C@H]1CN(C1CCOCC1)C2	-6.34%
Cn1cncc1C(=O)N1C[C@@H]2CCN(c3cnccn3)C[C@@H]2C1	-11.9%
Cn1ccnc1C(=O)N1C[C@@H]2CCN(c3cnccn3)C[C@@H]2C1	-7.28%
CC(C)CN1CCc2[nH]nc(C(=O)N3CCCC3)c2C1	28.7%
Cc1ccsc1C(=O)N1CCc2ncc(CN3CCCC3)n2CC1	-4.02%
O=C1COC2(COCCN(c3ccccn3)C2)CN1c1cccc(F)c1 (configuration not stated)	-9.76%
CN1C(=O)CC(c2ccncc2)C12CCN(c1ncccn1)CC2 (configuration not stated)	-0.583%
CN1CC[C@@H]2[C@@H](CO[C@H]2CNC(=O)c2nccn2C)C1	-4.99%
COc1ccccc1CN1CC[C@]2(C[C@@H](OCC(=O)N(C)C)CO2)C1	-3.75%
O=C(NC1CC(F)(F)C1)[C@]12COC[C@H]1CN(Cc1cccnc1)C2	-10.6%
COc1ncccc1CNC1CCc2c(ccc(=O)n2C)C1 (configuration not stated)	-1.32%
O=C(O)c1c(-c2ccncc2)ncc2c1CCN(CC1CCOC1)C2 (configuration not stated)	-4.36%
Cc1cccc(CN2CCC3(CCCN(Cc4cnn(C)c4)C3)C2)n1 (configuration not stated)	-14%
COc1ncccc1CNC1CCc2c(ccc(=O)n2CC2CC2)C1 (configuration not stated)	-8.76%
c1ccc(CN2CCCC3(CCN(CC4CCCO4)CC3)C2)nc1 (configuration not stated)	-9.93%
Cc1ccc(CN2CC[C@H]3CO[C@H](CN4CCCC4)[C@H]3C2)o1	-8.76%

— ChEMBL document CHEMBL3507680, “University of Dundee, Gates Library screen for HepG2 cell viability”
